In series [1] the test system is human cervix carcinoma (HeLa) cells. The series is described as follows: Antiproliferative assay, cell counting (Coulter Counter), HeLa. Format: cell-based. Conditions: read-out: IC50, inhibition of proliferation. As to the method: (§1) Human cervix carcinoma (HeLa), human colon carcinoma (HT29), human breast carcinoma (MCF-7) and human lymphoma (HL-60) cells (3–5 × 10^4 cells) and a serial (five-fold) dilution of the test compounds were added to a 96-well microtiter plate. The cells were incubated for 72–96 h (depending on the tumor cell line) at 37 °C in a humidified 5% CO2 atmosphere. At the end of the incubation period, the cells were counted in a Coulter Counter (Coulter Electronics Ltd, Harpenden Herts, UK). […] The IC50 values represent the average (±standard deviation) of at least two to four independent experiments.

Series [2] concerns human colon adenocarcinoma (HT29) cells. The series is described as follows: Antiproliferative assay, cell counting (Coulter Counter), HT29. The class given is cell-based. Conditions: read-out: IC50, inhibition of proliferation. As to the method:
as §1

Series [3] has as its system human breast adenocarcinoma (MCF-7) cells. The series is described as follows: Antiproliferative assay, cell counting (Coulter Counter), MCF-7. Format: cell-based. Conditions: read-out: IC50, inhibition of proliferation. As to the method: as §1
Series [4] relates to human promyelocytic leukemia (HL-60) cells. Nature of the series: Antiproliferative assay, cell counting (Coulter Counter), HL-60. The class given is cell-based. Conditions: read-out: IC50, inhibition of proliferation. Here is the method:
as §1

The subject of another series is bovine brain tubulin. The series is described as follows: Inhibition of tubulin polymerisation (turbidimetric tubulin assembly). Format: biochemical. Conditions: tubulin 10 µM, 20 min at 30 °C; read-out: Tubulin assembly IC50±SD. Here is the method: (§2) To evaluate the effect of the compounds on tubulin assembly in vitro[40], varying concentrations of compounds were preincubated with 10 μM bovine brain tubulin in 0.8M monosodium glutamate (pH adjusted to 6.6 with HCl in a 2.0M stock solution) at 30 °C and then cooled to 0 °C. After addition of 0.4 mM GTP, the mixtures were transferred to 0 °C cuvettes in a recording spectrophotometer and warmed to 30 °C. Tubulin assembly was followed turbidimetrically at 350 nm. […] The capacity of the test compounds to inhibit colchicine binding to tubulin was measured as described. The reaction mixtures contained 1 μM tubulin, 5 μM [^3H]colchicine and 5 μM test compound.

Series [5] has as its system tubulin (colchicine site). The series is described as follows: Inhibition of [3H]colchicine binding to tubulin. Details: species or system bovine. The settings on record: tubulin 1 µM, [3H]colchicine 5 µM, compound 5 µM. As to the method: as §2
The subject of series [6] is U251 glioblastoma cancer cell line. Further details: method as in PMID 27343855. Conditions: read-out: IC50, antiproliferative activity; cited from earlier work.
Where [7] appears, read: Homo sapiens, HT-29, HT29, 72–96 h.
Where [8] appears, read: Homo sapiens, MCF7, MCF-7, 72–96 h.
Where [9] appears, read: Homo sapiens, reference compounds in nM.
Setting [10] is: Homo sapiens, HL-60, reference compounds in nM.

Read-outs that look alike come from different tables or passages of the source.

Broadly, the melting point is the temperature of the solid-liquid transition. The molecule `CCOC(=O)c1c(/C=C/C(=O)c2cc(OC)c(OC)c(OC)c2)c2cc(OC)ccc2n1CC` [Compound 9m, (E)-Ethyl 1-ethyl-5-methoxy-3-(3-oxo-3-(3,4,5-trimethoxyphenyl)prop-1-en-1-yl)-1H-indole-2-carboxylate] had a melting point of 160 to 161 °C. The IC50 in series [1] (Homo sapiens, 72–96 h) turned out to be 24000 ± 2000 nM. In addition, in series [2] (setting [7]), the IC50 was 14000 ± 6000 nM. Also, the IC50 in series [3] (setting [8]) was 26000 ± 4000 nM. The IC50 in series [4] (Homo sapiens, HL-60, 72–96 h) was found to be 19000 ± 10000 nM.
For `COc1ccc(/C=C\c2cc(OC)c(OC)c(OC)c2)cc1O` [CA-4, combretastatin A-4, reference compound], the IC50 in series [1] (setting [9]) amounted to 4 ± 1 nM; in series [4] (setting [10]), 1 ± 0.2 nM; in the series on bovine brain tubulin, […]. Moreover, in series [5], the “Colchicine binding % ±SD (inhibition)” value is on record as 98 ± 0.9%.
Regarding `CCn1c(C(=O)OC)c(/C=C/C(=O)c2cc(OC)c(OC)c(OC)c2)c2ccc(OC)cc21` [Compound 9n, (E)-Methyl 1-ethyl-6-methoxy-3-(3-oxo-3-(3,4,5-trimethoxyphenyl)prop-1-en-1-yl)-1H-indole-2-carboxylate], the melting point lay in the range of 157 to 158 °C. Besides, in series [1] (Homo sapiens, 72–96 h), the IC50 came out at 24000 ± 15000 nM. Moreover, the IC50 in series [2] (setting [7]) was 19000 ± 9000 nM. The IC50 in series [3] (setting [8]) turned out to be 36000 ± 23000 nM. In series [4] (Homo sapiens, HL-60, 72–96 h), the IC50 turned out to be 47000 ± 11000 nM.
As for `COC(=O)c1c(/C=C/C(=O)c2cc(OC)c(OC)c(OC)c2)c2cc(OC)ccc2n1C` [Compound 9i, (E)-Methyl 5-methoxy-1-methyl-3-(3-oxo-3-(3,4,5-trimethoxyphenyl)prop-1-en-1-yl)-1H-indole-2-carboxylate], the melting point fell in the range of 150 to 151 °C. Moreover, the IC50 in series [1] (Homo sapiens, 72–96 h) was 25000 ± 3000 nM. Also, in series [2] (setting [7]), the IC50 was 22000 ± 1000 nM. Further, the IC50 in series [3] (setting [8]) came out at 2700 ± 900 nM. In series [4] (Homo sapiens, HL-60, 72–96 h), the IC50 is 28000 ± 3000 nM.
Turning to `COc1ccc2c(/C=C/C(=O)c3cc(OC)c(OC)c(OC)c3)c[nH]c2c1` [4a, reference compound], the IC50 amounted to 81 ± 2 nM in series [1] (setting [9]); 60 ± 3 nM in series [2] (Homo sapiens, HT-29, HT29, reference compounds in nM); 49 ± 4 nM in series [3] (Homo sapiens, MCF7, MCF-7, reference compounds in nM); 23 ± 1 nM in series [4] (setting [10]).
In the case of `COC(=O)c1c(/C=C/C(=O)c2cc(OC)c(OC)c(OC)c2)c2ccc(OC)cc2n1C` [Compound 9j, (E)-Methyl 6-methoxy-1-methyl-3-(3-oxo-3-(3,4,5-trimethoxyphenyl)prop-1-en-1-yl)-1H-indole-2-carboxylate], the melting point is 135 to 136 °C. In addition, the IC50 in series [1] (Homo sapiens, 72–96 h) is not below 100000 nM. Also, the IC50 in series [2] (setting [7]) was found to be 31000 ± 22000 nM. The IC50 in series [3] (setting [8]) turned out to be 11000 ± 4000 nM. Besides, the IC50 in series [4] (Homo sapiens, HL-60, 72–96 h) turned out to be 14000 ± 10000 nM.
Consider “(E)-Methyl 1-benzyl-6-methoxy-3-(3-oxo-3-(3,4,5-trimethoxyphenyl)prop-1-en-1-yl)-1H-indole-2-carboxylate [Compound 9r]”, for which the IC50 in series [1] (72–96 h) worked out at 26000 ± 4000 nM; in series [2] (HT29, 72–96 h) it was 27000 ± 2000 nM; in series [3] (MCF-7, 72–96 h), 28000 ± 3000 nM; in series [4] (HL-60, 72–96 h), 32000 ± 3000 nM.
As to `COC(=O)c1[nH]c2ccc(OC)cc2c1/C=C/C(=O)c1cc(OC)c(OC)c(OC)c1` [Compound 9c, (E)-Methyl 5-methoxy-3-(3-oxo-3-(3,4,5-trimethoxyphenyl)prop-1-en-1-yl)-1H-indole-2-carboxylate], the IC50 was 2400 ± 600 nM in series [1] (Homo sapiens, 72–96 h); 1000 ± 700 nM in series [2] (setting [7]); 590 nM in series [3] (setting [8]); 27000 ± 1000 nM in series [4] (Homo sapiens, HL-60, 72–96 h); more than 20 µM with bovine brain tubulin. For the same molecule, in series [5], the “Colchicine binding % ±SD (inhibition)” value amounted to 5.3 ± 4%.
The molecule `COC(=O)c1c(/C=C/C(=O)c2cc(OC)c(OC)c(OC)c2)c2cc(OC)ccc2n1Cc1ccccc1` [Compound 9q, (E)-Methyl 1-benzyl-5-methoxy-3-(3-oxo-3-(3,4,5-trimethoxyphenyl)prop-1-en-1-yl)-1H-indole-2-carboxylate] showed a melting point of 170 to 171 °C. Further, the IC50 in series [1] (Homo sapiens, 72–96 h) was 15000 ± 7000 nM. In series [2] (setting [7]), the IC50 stood at 18000 ± 10000 nM. The IC50 in series [3] (setting [8]) came out at 48000 ± 8000 nM. Besides, in series [4] (Homo sapiens, HL-60, 72–96 h), the IC50 stood at 39000 ± 27000 nM.
`CCn1c(C(=O)OC)c(/C=C/C(=O)c2cc(OC)c(OC)c(OC)c2)c2ccccc21` [Compound 9k, (E)-Methyl 1-ethyl-3-(3-oxo-3-(3,4,5-trimethoxyphenyl)prop-1-en-1-yl)-1H-indole-2-carboxylate] came in with a melting point of 115 to 117 °C. For the same molecule, in series [1] (Homo sapiens, 72–96 h), the IC50 came to 9400 ± 3100 nM. Also, the IC50 in series [2] (setting [7]) was 6700 ± 1200 nM. Further, in series [3] (setting [8]), the IC50 came to 11000 ± 10000 nM. In series [4] (Homo sapiens, HL-60, 72–96 h), the IC50 is 37000 ± 1000 nM.
`CCOC(=O)c1[nH]c2ccccc2c1/C=C/C(=O)c1cc(OC)c(OC)c(OC)c1` [Compound 9b, (E)-Ethyl 3-(3-oxo-3-(3,4,5-trimethoxyphenyl)prop-1-en-1-yl)-1H-indole-2-carboxylate]: the IC50 in series [1] (Homo sapiens, 72–96 h) turned out to be 2100 ± 800 nM; in series [2] (setting [7]), 440 ± 330 nM; in series [3] (setting [8]), 1800 ± 1500 nM.
The molecule `CCOC(=O)c1c(/C=C/C(=O)c2cc(OC)c(OC)c(OC)c2)c2ccccc2n1Cc1ccccc1` [Compound 9p, (E)-Ethyl 1-benzyl-3-(3-oxo-3-(3,4,5-trimethoxyphenyl)prop-1-en-1-yl)-1H-indole-2-carboxylate] showed a melting point of 128 to 130 °C. The IC50 in series [1] (Homo sapiens, 72–96 h) worked out at 61000 ± 41000 nM. Moreover, the IC50 in series [2] (setting [7]) stood at 9200 ± 4700 nM. Further, the IC50 in series [3] (setting [8]) worked out at 50000 ± 4000 nM. For the same molecule, the IC50 in series [4] (Homo sapiens, HL-60, 72–96 h) turned out to be 9000 ± 5100 nM.
Regarding `CCOC(=O)c1c(/C=C/C(=O)c2cc(OC)c(OC)c(OC)c2)c2ccccc2n1C` [Compound 9h, (E)-Ethyl 1-methyl-3-(3-oxo-3-(3,4,5-trimethoxyphenyl)prop-1-en-1-yl)-1H-indole-2-carboxylate], the melting point lay in the range of 138 to 140 °C. Besides, the IC50 in series [1] (Homo sapiens, 72–96 h) came out at 41000 ± 11000 nM. For the same molecule, the IC50 in series [2] (setting [7]) amounted to 5000 ± 1400 nM. Moreover, in series [3] (setting [8]), the IC50 amounted to 8300 ± 2300 nM. The IC50 in series [4] (Homo sapiens, HL-60, 72–96 h) came to 58000 ± 40000 nM.
In the case of `COC(=O)c1c(/C=C/C(=O)c2cc(OC)c(OC)c(OC)c2)c2ccccc2n1C` [Compound 9g, (E)-Methyl 1-methyl-3-(3-oxo-3-(3,4,5-trimethoxyphenyl)prop-1-en-1-yl)-1H-indole-2-carboxylate], the melting point fell in the range of 147 to 149 °C. Further, in series [1] (Homo sapiens, 72–96 h), the IC50 turned out to be 69000 ± 12000 nM. Also, in series [2] (setting [7]), the IC50 came out at 10000 ± 4000 nM. For the same molecule, the IC50 in series [3] (setting [8]) stood at 6700 ± 3000 nM. The IC50 in series [4] (Homo sapiens, HL-60, 72–96 h) was 67000 ± 46000 nM.
For `COC(=O)c1c(/C=C/C(=O)c2cc(OC)c(OC)c(OC)c2)c2ccccc2n1Cc1ccccc1` [Compound 9o, (E)-Methyl 1-benzyl-3-(3-oxo-3-(3,4,5-trimethoxyphenyl)prop-1-en-1-yl)-1H-indole-2-carboxylate], the melting point fell in the range of 166 to 168 °C. The IC50 in series [1] (Homo sapiens, 72–96 h) is 8200 ± 1500 nM. Moreover, in series [2] (setting [7]), the IC50 came out at 11000 ± 6000 nM. Besides, in series [3] (setting [8]), the IC50 came to 71000 ± 18000 nM. Moreover, the IC50 in series [4] (Homo sapiens, HL-60, 72–96 h) came to 41000 ± 25000 nM.
With `CCn1c(C(=O)OC)c(/C=C/C(=O)c2cc(OC)c(OC)c(OC)c2)c2cc(OC)ccc21` [Compound 9l, (E)-Methyl 1-ethyl-5-methoxy-3-(3-oxo-3-(3,4,5-trimethoxyphenyl)prop-1-en-1-yl)-1H-indole-2-carboxylate], the melting point lay within 141 to 142 °C. Further, in series [1] (Homo sapiens, 72–96 h), the IC50 turned out to be 6800 ± 2600 nM. Further, the IC50 in series [2] (setting [7]) stood at 10000 ± 6000 nM. In addition, the IC50 in series [3] (setting [8]) was 93000 ± 1000 nM. The IC50 in series [4] (Homo sapiens, HL-60, 72–96 h) stood at 26000 ± 15000 nM.
For `COC(=O)c1[nH]c2ccccc2c1/C=C/C(=O)c1cc(OC)c(OC)c(OC)c1` [Compound 9a, (E)-Methyl 3-(3-oxo-3-(3,4,5-trimethoxyphenyl)prop-1-en-1-yl)-1H-indole-2-carboxylate], the IC50 in series [1] (Homo sapiens, 72–96 h) came to 2000 ± 1000 nM; in series [2] (setting [7]), 7300 ± 1200 nM; in series [3] (setting [8]) it was 1100 ± 400 nM; in series [4] (Homo sapiens, HL-60, 72–96 h), 4400 nM.
As for `COc1ccc2[nH]c(C)c(/C=C/C(=O)c3cc(OC)c(OC)c(OC)c3)c2c1` [compound 3], the IC50 in series [6] was more than 10 µM.
